This is an account of results in US20070191450A1, “Use of Benzo-Heteroaryl Sulfamide Derivatives for the Treatment of Mania and Bipolar Disorder” (priority 2006, published 2007).

Molecules are shown by their SMILES.

Usually ED50 stands for the midpoint of the dose-response relation. For orientation: TD50 means the dose at which the toxic effect under study appears in half of the subjects.

The test system of data set [1] is hippocampal kindled seizures. The experiment in a line: Rat Hippocampal Kindling Model (Interruption of Kindled State). It is filed as in vivo. The conditions noted are these: for ED50: Rattus norvegicus, ip, read-out: ED50 = median therapeutic dose; for After-Discharge Duration (% of control) / Mean Seizure Score: i.p., line of the ED50 dose; for effect on seizure activity: reference drugs. The protocol: In the present rapid hippocampal kindling model adult male Sprague-Dawley rats (300-400 g) were surgically implanted with bipolar electrodes placed in the hippocampus. […] One week later, the rats received 2-3 supra-threshold stimulations delivered every 30 min before compound treatment to ensure stability of the behavioral seizure stage and after-discharge duration. Fifteen minutes after the last stimulation, a single dose of vehicle or test compound was administered i.p (intraperitoneally). After 15 min, each rat was then stimulated every 30 min for 3 to 4 h. After each stimulation, individual seizure scores and after-discharge durations were recorded. The group mean±SEM were calculated for each parameter. Eight rats per dose and a minimum of four doses were used to establish an ED50 value. Efficacy was measured as the ability of a compound to modify the seizure score (severity of spread) and after-discharge duration (ADD; excitability) of the generalized seizures.
Thus, according to the theories presented in current literature (Ghaemi, S. N., Boiman, E. E., and Goodwin, F. K., Soc. of Bio. Psychiatry, (1999), vol. 45, pp 137-144; Stoll, A. L., and Severus, W. E., Harvard Rev. Psychiatry, July/August (1996), Vol. 4, No. 2, pp 77-89) a decrease in seizure score and/or ADD may also be predictive of the ability of a test compound to treat the cycling associated with bipolar disorder.

The subject of the next data set is dominant rats. As to the kind of experiment: Dominant-Submissive assay: Reduction of Dominant Behavior Model (RDBM). It is filed as in vivo, rat. The conditions noted are these: for treatment time after which dominant behavior was significantly reduced: historical data, FIG. 2, i.p.: lithium 100 mg/kg, carbamazepine 20 mg/kg, VPA 30 mg/kg. The protocol: Dominance and submissiveness, defined in a competition test and measured as the relative success of two food-restricted rats to gain access to a feeder, form a behavioral paradigm—the Dominant Submissive Relationship (DSR). This paradigm results in two models which are predictive of ability of test compounds (drugs) to treat mood disorders.
Test compounds are evaluated for either their ability to inhibit the dominant behavior of rats taking food at the expense of an opponent (reduction of dominant behavior model or RDBM) and thus their potential as treatments for mania; or for their ability to increase the competitive behavior of submissive rats losing such encounters (reduction of submissive behavior model or RSBM) and thus their potential as treatments for depression; (Malatynska, E., and Knapp, R. J., Neuroscience and Biobehavioral Review, 29 (2005) 715-737).
The Reduction of Dominant Behavior Model (RDBM) test, wherein the dominant animals are treated with test compound, is predictive of the ability of the test compound to treat mani. This model was applied to Compound #1 of the present invention, according to the following procedure.
(§1) Male Sprague Dawley rats (140 to 160 g) from Charles River Laboratories Wilmington, Mass. were used in this assay. Shipments of rats were received at two-week intervals. Each shipment went through five-day quarantine, one-week acclimation period, and one-week selection process, followed by five-weeks of drug or vehicle treatment to those pairs selected.
(§2) Rats were housed four per cage. Access to food was restricted to one hour per day after testing on Monday through Thursday. After testing on Friday, rats had free access to food until being fasted again on Sunday. At no time were the rats deprived of water. The food deprivation periods used had little effect on weight gain as the average weight of rats was about 300 g at the end of the study. At the conclusion of experiment rats were sacrificed by decapitation, the trunk blood and brains were collected for in vitro experiments and drug concentration measurements.
(§3) The basic testing apparatus consisted of two chambers connected with a tunnel only large enough to allow one rat to pass through at a time. On the floor, at the mid-point of the tunnel was a container of sweetened milk. […] During the five-minute daily sessions, time spent in the feeder zone by each rat was recorded by the video tracking software and saved into a text file.
(§4) The test began with a random assignment of rats into pairs. […] The time spent in the feeder zone by each animal was recorded. […] Finally, there must have been no “reversals” during the pair selection week where the putative submissive rat out-scored its dominant partner on isolated occasions. […]

The nature of data set [2]: Median toxic dose (TD50), i.p., listed with the Rat Hippocampal Kindling Test. The conditions noted are these: Sprague-Dawley, in vivo, ip, Table 4 dose column.
Data set [3] relates to LTG-resistant amygdala kindled seizures. As to the kind of experiment: Lamotrigine Resistant Amygdala Kindled Rat Model (Interruption of Kindled State). It is filed as in vivo. The conditions noted are these: 100 mg/kg, i.p. The protocol:
Amygdala kindling is less severe than hippocampal kindling, such that many AEDs are effective against amygdala kindled seizures, but are ineffective against hippocampal kindled seizures.
In the LTG-resistant amygdala kindling model, rats were dosed with LTG (5 mg/kg, i.p., q.d.) during the acquisition phase of kindling. […] Once kindled (supra-threshold stimulation of 150 μA biphasic 60 Hz current pulse for 1 second; ˜2 weeks), rats were re-challenged with a high dose of LTG (45 mg/kg, i.p.) one week later to insure resistance. After a 3-4 day wash out period, rats received 2-3 supra-threshold stimulations delivered every 30 min before compound treatment to ensure stability of the behavioral seizure stage and after-discharge duration. Fifteen minutes after the last stimulation, a single dose of vehicle or test compound was administered i.p. After 15 min, each rat was then stimulated every 30 min for 3 to 4 h. After each stimulation, individual seizure scores and after-discharge durations were recorded. The group mean±SEM was calculated for each parameter.

For a further data set, the system named is submissive rats. As to the kind of experiment: Dominant-Submissive assay: Reduction of Submissive Behavior Model (RSBM). Format: in vivo, rat. The protocol: The Reduction of Submissive Behavior Model (RSBM) test, wherein the submissive animals are treated with test compound, is predictive of the ability of the test compound to treat depression. This model was applied to Compound #1 of the present invention, according to the following procedure.
as §1, §2, §3, §4
Significant differences between time spent on the feeder by dominant and submissive rats were determined by ANOVA using GraphPad Prism software (GraphPad Software, Inc. San Diego, Calif.) followed by a two-tailed t-test (P<0.05). […]

Data set [4] concerns amygdala kindled seizures. The experiment in a line: Amygdala Kindling Assay (Kindling Prevention). It is filed as in vivo, rat.
For data set [5], the system named is LTG-resistant amygdala kindled seizures. The conditions noted are these: 5 mg/kg, i.p., q.d.; cited from earlier work.
The subject of data set [6] is hippocampal kindled seizures. The conditions noted are these: background statement; cited from earlier work.
Data set [7] relates to amygdala kindled seizures. The settings on record: i.p., cited from earlier work.

In the case of `NC(=O)N1c2ccccc2C=Cc2ccccc21` [Carbamazepine, carbamazepine], in data set [1], the ED50 was determined as 50 mg/kg; the “After-Discharge Duration (% of control)” value is recorded as 72 ± 13% of control; the “Mean Seizure Score” value amounted to 2.3 ± 0.6; the “effect on seizure activity” value is given as “suppressed seizure activity, but at doses associated with toxicity”. For the same compound, in the data set with dominant rats, the “treatment time after which dominant behavior was significantly reduced” value turned out to be 3 weeks. This compound also came in with a TD50 in [2] of 26 mg/kg.
For `NS(=O)(=O)NCc1csc2ccccc12` [Compound #1, N-(benzo[b]thien-3-ylmethyl)-sulfamide], the rats protected result in data set [3] (n=11) is “Five out of eleven”. For the same compound, the “seizure score after treatment” value in [3] (reduced from a 5) turned out to be 3.1. Further, in the data set with dominant rats (1.25 mg/kg p.o. BID, p<0.05), the “treatment time after which reduction of dominant behavior was statistically significant” value is given as 2 weeks. In addition, in the data set with dominant rats (p.o. BID 1.25, 6, 30, 60 mg/kg, FIG. 1), the “reduction of dominant behavior (dominance level)” value is on record as “reduced dominant behavior in a dose-dependent manner”. Moreover, the “treatment time after which reduction of submissive behavior was statistically significant” value is reported as 5 weeks in the data set with submissive rats (30 mg/kg p.o. twice a day, p<0.05) and 17 days in the data set on submissive rats (60 mg/kg p.o. twice a day, p<0.01). The “reduction of submissive behavior (antidepressant)” value in the data set on submissive rats (p.o. twice a day for 5 weeks, 6, 30, 60 mg/kg) was “reduced submissive behavior (antidepressant) in a dose-dependent manner”. The “seizure score at the conclusion of the drug- and stimulus-free period versus vehicle” value in data set [4] (100 mg/kg i.p. during acquisition, re-challenged in the absence of drug) is given as “remained significantly lower”. Further, the “acquisition of the fully generalized kindled seizure” value in data set [4] (100 mg/kg i.p., FIG. 4) is listed as “prevented the acquisition of the fully generalized kindled seizure”. Moreover, in data set [2], the TD50 turned out to be 100 mg/kg.
As to `CCC1(C)CC(=O)NC1=O` (centres unmarked) [Ethosuximide], in data set [1], the ED50 is 250 mg/kg, the “After-Discharge Duration (% of control)” value is listed as 78 ± 13% of control, the “Mean Seizure Score” value was 5 ± 0 and the “effect on seizure activity” value is listed as “ineffective”. Moreover, the TD50 in data set [2] was 189 mg/kg.
Take `Nc1nnc(-c2cccc(Cl)c2Cl)c(N)n1` [LTG, lamotrigine]: in data set [5], the “effect on kindling during acquisition phase” value was “no effect on kindling itself”. In addition, the “protection against hippocampal kindled seizures” value in [6] is given as “unable to protect against hippocampal kindled seizures”. Moreover, in data set [7] (Cl=4-50 mg/kg), the “ED50, amygdala kindled seizures” value is 25 mg/kg. Besides, in data set [7], the “ADD reduced by” value was 62% and the “amygdala kindled seizure score” value is given as ~2.
On to `O=C1NC(=O)C(c2ccccc2)(c2ccccc2)N1` [Phenytoin], for which, in data set [1], the ED50 came to 150 mg/kg; the “After-Discharge Duration (% of control)” value is reported as 209 ± 43% of control; the “Mean Seizure Score” value worked out at 4.3 ± 0.3; the “effect on seizure activity” value is on record as “suppressed seizure activity, but at doses associated with toxicity”. Further, the TD50 in data set [2] is 15 mg/kg.
As to `CCCC(CCC)C(=O)[O-].[Na+]` [VPA, sodium valproate], the “treatment time after which dominant behavior was significantly reduced” value in the data set on dominant rats amounted to 1 weeks.
Regarding `CCCC(CCC)C(=O)O` [Valproic acid], in data set [1], the ED50 came to 350 mg/kg; the “After-Discharge Duration (% of control)” value is 3 ± 1.4% of control; the “Mean Seizure Score” value turned out to be 0.3 ± 0.3; the “effect on seizure activity” value was “suppressed seizure activity, but at doses associated with toxicity”. For the same compound, the “dose giving protection similar to Compound #1 (toxic doses)” value in [1] (rat, in vivo) is > 300 mg/kg. The same compound yielded a TD50 in data set [2] of 316 mg/kg.
